Source: ChEMBL document CHEMBL5532725, “SARS-CoV-2 Main Protease Inhibitors That Leverage Unique Interactions with the Solvent Exposed S3 Site of the Enzyme” (ACS Med Chem Lett, 2024)

biological target: Replicase polyprotein 1ab (Severe acute respiratory syndrome coronavirus 2, UniProt P0DTD1); experiment: Inhibition of SARS-CoV-2 MPro preincubated for 30 mins followed by substrate addition by fluorescence based assay

`CC1(C)[C@@H]2[C@@H](C(=O)N[C@H](C=O)C[C@@H]3CCNC3=O)N(C(=O)C(Oc3ccc(Cl)cc3)Oc3ccc(Cl)cc3)C[C@@H]21` was tested. Which IC50 did it give?
Its IC50 is 0.28 µM.

`CC1(C)[C@@H]2[C@@H](C(=O)N[C@H](C#N)C[C@@H]3CCNC3=O)N(C(=O)[C@@H](NC(=O)C(F)(F)F)c3ccc(Cl)cc3)C[C@@H]21` was tested. Which IC50 did it give?
The IC50 was 0.42 µM.

For `CC1(C)[C@@H]2[C@@H](C(=O)N[C@H](C=O)C[C@@H]3CCNC3=O)N(C(=O)N(c3ccc(Cl)cc3)c3ccc(Cl)cc3)C[C@@H]21`, which IC50 is on record?
The IC50 was 0.45 µM.

How did the IC50 turn out when `CC1(C)[C@@H]2[C@@H](C(=O)N[C@H](C=O)C[C@@H]3CCNC3=O)N(C(=O)OC(c3ccc(F)cc3)c3ccc(F)cc3)C[C@@H]21` was run?
The IC50 was 0.094 µM.

For `CC1(C)[C@@H]2[C@@H](C(=O)N[C@H](C=O)C[C@@H]3CCNC3=O)N(C(=O)C(c3ccc(Cl)cc3)c3ccc(Cl)cc3)C[C@@H]21`, which IC50 is on record?
Its IC50 is 0.28 µM.

With `CC1(C)[C@@H]2[C@@H](C(=O)N[C@H](C=O)C[C@@H]3CCNC3=O)N(C(=O)[C@H](CC3CCCCC3)NC(=O)OCc3ccccc3)C[C@@H]21` as the compound, how does the IC50 read?
Its IC50 is 0.25 µM.

With `CC1(C)[C@@H]2[C@@H](C(=O)N[C@H](C=O)C[C@@H]3CCNC3=O)N(C(=O)OC(c3ccccc3)c3ccccc3)C[C@@H]21` as the compound, how does the IC50 read?
The IC50 was 0.096 µM.
